For test [1], the system named is mTORC1. Put plainly: mTORC1 activity in HEK293FT cells (WT and knockout lines), phosphorylation of S6K, 4E-BP1, Grb10, TFEB by immunoblot. It is filed as cell-based, human. As to the method:
Data represent the median fluorescence intensity of OPP Alexa Fluor 488; n = 6 biological replicates from two independent experiments. b,c,e,g,i,k,l, Data are the mean ± s.e.m. *P < 0.05, **P < 0.005, ***P < 0.0005. […] Source numerical data and unprocessed blots are provided. Source data
Amino-acid-starvation experiments were carried out as described before[42],[43]. […] For the lipid depletion experiments, cells were cultured in medium containing 10% charcoal-stripped FBS (A3382101, Thermo Fisher Scientific), instead of full FBS, for 24 h before treatments with FASN inhibitors were performed. For FA supplementation, each FA was first conjugated to 10% FA-free BSA (fraction V; cat. no. 10735086001, Roche) for 1 h at 50 °C in a 50:50 volumetric ratio. The BSA-conjugated C16:0, C16:1, C18:1 and C18:2 FAs (100 μM) were then added to the media both 16 h previous to and at the start of the treatment with FASN inhibitors.
For standard SDS–PAGE and immunoblotting experiments, cells from a well of a 12-well plate were lysed in 250 μl of ice-cold Triton lysis buffer (50 mM Tris pH 7.5, 1% Triton X-100, 150 mM NaCl, 50 mM NaF, 2 mM Na-vanadate and 0.011 g ml^−1 β-glycerophosphate) supplemented with 1×PhosSTOP phosphatase inhibitors (cat. no. 4906837001, Roche) and 1×cOmplete protease inhibitors (cat. no. 11836153001, Roche) for 10 min on ice. The samples were clarified by centrifugation (20,000g, 15 min, 4 °C) and the supernatants were boiled in 1×SDS sample buffer (5×SDS sample buffer: 350 mM Tris–HCl pH 6.8, 30% glycerol, 600 mM DTT, 12.8% SDS and 0.12% bromophenol blue). The band intensities were quantified using the ImageJ software.

The target in test [2] is T1, mTORC1 (Homo sapiens, UniProt P42345).
T1 construct: endogenous mTORC1 complexes were purified from HEK293FT cells; endogenous in cells; host or cells: HEK293FT (immunoprecipitation of endogenous mTOR); the 4E-BP1 substrate was made in E. coli BL21 RP
As to the kind of experiment: mTORC1 complex stability/composition, mTOR co-immunoprecipitation of Raptor and mLST8. The following applies: 1 mM Mal-CoA added to cell lysates before immunoprecipitation. As to the method: For the mammalian endogenous protein co-immunoprecipitation experiments, cells of a near-confluent 10-cm dish were lysed in CHAPS IP buffer (50 mM Tris pH 7.5, 0.3% CHAPS detergent, 150 mM NaCl, 50 mM NaF, 2 mM Na-vanadate and 0.011 g ml^−1 β-glycerophosphate) supplemented with 1×PhosSTOP phosphatase inhibitors and 1×EDTA-free cOmplete protease inhibitors (11873580001, Roche) for 10 min on ice. The samples were clarified by centrifugation (20,000g, 15 min, 4 °C) and the supernatants were subjected to immunoprecipitation by the addition of 3 μl of each antibody, incubation at 4 °C with rotation for 3 h, followed by incubation (4 °C with rotation) with 30 μl of a pre-washed Protein A agarose bead slurry (cat. no. 11134515001, Roche) for an additional hour. The beads were then washed four times with CHAPS IP wash buffer (50 mM Tris pH 7.5, 0.3% CHAPS detergent, 150 mM NaCl and 50 mM NaF) and boiled in 1×SDS loading buffer. A portion of the samples was kept aside as the input before the addition of antibodies. The samples were analysed by SDS–PAGE and the presence of co-immunoprecipitated proteins was detected by immunoblotting with the appropriate specific antibodies.
To test whether Mal-CoA influences mTORC1 complex stability/composition, 1 mM Mal-CoA lithium salt solution was added to the lysates before the immunoprecipitation of mTOR, as described earlier. […]

“Also recorded” adds a separate entry of the source.

`CC(C)(COP(=O)(O)OP(=O)(O)OCC1OC(n2cnc3c(N)ncnc32)C(O)C1OP(=O)(O)O)C(O)C(=O)NCCC(=O)NCCSC(=O)CC(=O)O` (stereo not drawn) [Mal-CoA, malonyl-CoA]: the “p-S6K(T389)/S6K, Mean” value in the test on mTORC1 [1] (ED Fig. 4n, relative to DMSO) turned out to be 0.5757. In addition, the “mTORC1 activity after exogenous addition of Mal-CoA” value in the test with mTORC1 [1] (HEK293FT, 250 μM Mal-CoA in medium, 30 min) is “significant drop; also recorded: capable of downregulating”. For the same molecule, the “mTORC1 stability (interaction of mTOR with Raptor and mLST8)” value on mTORC1 [2] is “did not influence”.

These data come from article PMC10495264 (Nature Cell Biology, 2023).
